These compounds were tested against T1, SARM1 (50-724) (Homo sapiens, UniProt Q6SZW1) (assay: biochemical).
T1 sequence (Q6SZW1 50-724): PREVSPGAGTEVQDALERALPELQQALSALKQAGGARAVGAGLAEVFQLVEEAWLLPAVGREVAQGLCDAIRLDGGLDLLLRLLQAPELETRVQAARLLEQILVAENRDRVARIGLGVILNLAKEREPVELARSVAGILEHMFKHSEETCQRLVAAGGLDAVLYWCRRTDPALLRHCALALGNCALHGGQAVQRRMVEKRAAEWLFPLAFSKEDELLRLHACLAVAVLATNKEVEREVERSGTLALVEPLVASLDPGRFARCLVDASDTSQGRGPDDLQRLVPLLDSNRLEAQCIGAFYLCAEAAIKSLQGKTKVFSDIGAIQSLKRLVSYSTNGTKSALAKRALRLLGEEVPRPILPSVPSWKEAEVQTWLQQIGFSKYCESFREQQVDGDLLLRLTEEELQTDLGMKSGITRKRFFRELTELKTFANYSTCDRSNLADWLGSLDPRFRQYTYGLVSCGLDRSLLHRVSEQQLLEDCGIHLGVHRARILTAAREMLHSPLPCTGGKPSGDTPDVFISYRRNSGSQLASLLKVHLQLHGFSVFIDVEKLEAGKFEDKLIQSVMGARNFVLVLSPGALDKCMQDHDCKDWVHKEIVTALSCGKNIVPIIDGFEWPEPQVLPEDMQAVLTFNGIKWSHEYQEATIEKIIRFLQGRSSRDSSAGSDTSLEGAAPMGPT
Method: An enzymatic assay was performed in a 384-well plate using Dulbecco's phosphate-buffered saline (PBS) as the reaction buffer. […] The reaction was initiated by adding a mixture of 200 μM nicotinamide mononucleotide (NMN) as activator and 100 μM NAD^+ as substrate. After 1 h of incubation at room temperature, the reaction was terminated with 10 times volume of 70% acetonitrile, then centrifuged at 3800 rpm for 10 min.

| SMILES | IC50 |
| --- | --- |
| CC(Nc1ccc2cc[nH]c(=O)c2c1)c1cc(F)cc(F)c1Cl (racemic) [Example 137, 7-((1-(2-chloro-3,5-difluorophenyl)ethyl)amino)isoquinolin-1(2H)-one] | < 100 nM |
| Cc1cc(F)cc(C(Nc2ccc3c(c2)C(=O)NCC3)C(C)C)c1 (racemic) [Example 144, 7-((1-(3-fluoro-5-methylphenyl)-2-methylpropyl)amino)-3,4-dihydroisoquinolin-1(2H)-one] | 100 to 500 nM |
| C=CCCC(Nc1ccc2c(c1)C(=O)NCC2)c1cc(C)cc(F)c1 (racemic) [Example 145, 7-((1-(3-fluoro-5-methylphenyl)pent-4-en-1-yl)amino)-3,4-dihydroisoquinolin-1(2H)-one] | 500 to 1000 nM |
| CCC(Nc1ccc2c(c1)C(=O)NCN2)c1cccc(Cl)c1Cl (racemic) [Example 147, 6-((1-(2,3-dichlorophenyl)propyl)amino)-2,3-dihydroquinazolin-4(1H)-one] | 100 to 500 nM |
| CCC(Nc1ccc2c(c1)C(=O)NCC2)c1nccc(Cl)c1Cl (racemic) [Example 154, 7-((1-(3,4-dichloropyridin-2-yl)propyl)amino)-3,4-dihydroisoquinolin-1(2H)-one] | 100 to 500 nM |
| CCC(Nc1ccc2nc[nH]c(=O)c2c1)c1nccc(Cl)c1Cl (racemic) [Example 155, 6-((1-(3,4-dichloropyridin-2-yl)propyl)amino)quinazolin-4(3H)-one] | 100 to 500 nM |
| CC(Nc1ccc2c(c1)C(=O)NCN2)c1ccc(F)c(Cl)c1Cl (racemic) [Example 157, 6-((1-(2,3-dichloro-4-fluorophenyl)ethyl)amino)-2,3-dihydroquinazolin-4(1H)-one] | 100 to 500 nM |
| O=C1NCCc2ccc(NS(=O)(=O)N3C[C@@H]4CC[C@H]3C4)cc21 (racemic) [Example 167, N-(1-oxo-1,2,3,4-tetrahydroisoquinolin-7-yl)-2-azabicyclo[2.2.1]heptane-2-sulfonamide] | > 1000 nM |
| CC1CCCN(S(=O)(=O)Nc2ccc3c(c2)C(=O)NCC3)C1 (racemic) [Example 169, 3-methyl-N-(1-oxo-1,2,3,4-tetrahydroisoquinolin-7-yl)piperidine-1-sulfonamide] | > 1000 nM |
| CC(Nc1ccc2nc[nH]c(=O)c2c1)c1c(Cl)ccc(F)c1Cl (racemic) [Example 193, 6-((1-(2,6-dichloro-3-fluorophenyl)ethyl)amino)quinazolin-4(3H)-one] | < 100 nM |
| CC(Nc1ccc2cc[nH]c(=O)c2n1)c1cc(F)cc(Cl)c1Cl (racemic) [Example 205, 2-((1-(2,3-dichloro-5-fluorophenyl)ethyl)amino)-1,7-naphthyridin-8(7H)-one] | < 100 nM |
| CC(Nc1ccc2c(c1)NC(=O)C2(C)C)c1nccc(Cl)c1Cl (racemic) [Example 210, 6-((1-(3,4-dichloropyridin-2-yl)ethyl)amino)-3,3-dimethylindolin-2-one] | < 100 nM |
| Cc1nc(C(C)Nc2ccc3cc[nH]c(=O)c3c2)sc1C (racemic) [Example 213, 7-((1-(4,5-dimethylthiazol-2-yl)ethyl)amino)isoquinolin-1(2H)-one] | < 100 nM |
| CC(Nc1ccc2cc[nH]c(=O)c2c1)c1nn2c(c1Cl)CCC2 (racemic) [Example 221, 7-((1-(3-chloro-5,6-dihydro-4H-pyrrolo[1,2-b]pyrazol-2-yl)ethyl)amino)isoquinolin-1(2H)-one] | 100 to 500 nM |

Results, then the compound that gave them:

| IC50 | SMILES |
| --- | --- |
| < 100 nM | CC(Nc1ccc2cc[nH]c(=O)c2c1)c1cc(Cl)cc(Cl)c1Cl (racemic) [Example 138, 7-((1-(2,3,5-trichlorophenyl)ethyl)amino)isoquinolin-1(2H)-one] |
| 100 to 500 nM | CC(Nc1ccc2cc[nH]c(=O)c2c1)c1cccc(F)c1Cl (racemic) [Example 139, 7-((1-(2-chloro-3-fluorophenyl)ethyl)amino)isoquinolin-1(2H)-one] |
| 500 to 1000 nM | CC(Nc1ccc2ccnn2c1)c1cccc(Cl)c1Cl (racemic) [Example 140, N-(1-(2,3-dichlorophenyl)ethyl)pyrazolo[1,5-a]pyridin-6-amine] |
| > 1000 nM | CC(Nc1ccc2c(cnn2C)c1)c1cccc(Cl)c1Cl (racemic) [Example 141, N-(1-(2,3-dichlorophenyl)ethyl)-1-methyl-1H-indazol-5-amine] |
| 500 to 1000 nM | CC(Nc1ccc2ccn(Cc3ccccc3)c(=O)c2c1)c1cccc(Cl)c1Cl (racemic) [Example 142, 2-benzyl-7-((1-(2,3-dichlorophenyl)ethyl)amino)isoquinolin-1(2H)-one] |
| < 100 nM | CCC(Nc1ccc2cc[nH]c(=O)c2c1)c1cccc(Cl)c1Cl (racemic) [Example 143, 7-((1-(2,3-dichlorophenyl)propyl)amino)isoquinolin-1(2H)-one] |
| < 100 nM | CCC(Nc1ccc2nc[nH]c(=O)c2c1)c1cccc(Cl)c1Cl (racemic) [Example 146, 6-[1-(2,3-dichlorophenyl)propylamino]-3H-quinazolin-4-one] |
| > 1000 nM | CC(Nc1ccc2nccc(=O)n2c1)c1cccc(Cl)c1Cl (racemic) [Example 148, 7-((1-(2,3-dichlorophenyl)ethyl)amino)-4H-pyrido[1,2-a]pyrimidin-4-one] |
| 100 to 500 nM | CC(Nc1ccc2cnn(C)c(=O)c2c1)c1cccc(Cl)c1Cl (racemic) [Example 149, 7-((1-(2,3-dichlorophenyl)ethyl)amino)-2-methylphthalazin-1(2H)-one] |
| > 1000 nM | CC(Nc1cccc(-c2cccnn2)c1)c1cccc(Cl)c1Cl (racemic) [Example 150, N-(1-(2,3-dichlorophenyl)ethyl)-3-(pyridazin-3-yl)aniline] |
| 100 to 500 nM | CC(Nc1ccc2ccn(C)c(=O)c2c1)c1c(Cl)cccc1Cl (racemic) [Example 151, 7-((1-(2,6-dichlorophenyl)ethyl)amino)-2-methylisoquinolin-1(2H)-one] |
| < 100 nM | CCC(Nc1ccc2cc[nH]c(=O)c2c1)c1nccc(Cl)c1Cl (racemic) [Example 153, 7-((1-(3,4-dichloropyridin-2-yl)propyl)amino)isoquinolin-1(2H)-one] |
| < 100 nM | CC(Nc1ccc2nc[nH]c(=O)c2c1)c1ccc(F)c(Cl)c1Cl (racemic) [Example 156, 6-[1-(2,3-dichloro-4-fluoro-phenyl)ethylamino]-3H-quinazolin-4-one] |
| < 100 nM | Cc1c(F)ccc(C(C)Nc2ccc3cc[nH]c(=O)c3c2)c1Cl (racemic) [Example 192, 7-[1-(2-chloro-4-fluoro-3-methyl-phenyl)ethylamino]-2H-isoquinolin-1-one] |
| < 100 nM | CC(Nc1ccc2nc[nH]c(=O)c2c1)c1c(Cl)ccc(Cl)c1Cl (racemic) [Example 195, 6-((1-(2,3,6-trichlorophenyl)ethyl)amino)quinazolin-4(3H)-one] |
| < 100 nM | CC(Nc1ccc2cn[nH]c(=O)c2c1)c1c(Cl)ccc(Cl)c1Cl (racemic) [Example 198, 7-((1-(2,3,6-trichlorophenyl)ethyl)amino)phthalazin-1(2H)-one] |
| 100 to 500 nM | CC(Nc1ccc2cn[nH]c(=O)c2c1)c1cc(F)cc(Cl)c1Cl (racemic) [Example 200, 7-((1-(2,3-dichloro-5-fluorophenyl)ethyl)amino)phthalazin-1(2H)-one] |
| < 100 nM | CC(Nc1ccc2cc[nH]c(=O)c2c1)c1ccc(F)c(Cl)c1Cl (racemic) [Example 203, 7-[1-(2,3-dichloro-4-fluoro-phenyl)ethylamino]-2H-isoquinolin-1-one] |

— US20250320184A1 (SIRONAX LTD., priority 2022, published 2025)
